Earlier results in patent US11364228B2 (Ovid Therapeutics Inc., priority 2019, dated 2022).

Tests used:
[1] = tested on: sleep onset and sleep maintenance; settings: three-month efficacy study, treatment of insomnia
[2] = tested on: patients with a history of drug abuse; settings: patients with a history of drug abuse who received gaboxadol
[3] = conventional pharmaceutical compositions such as tablets and capsules

In the case of `Oc1noc2c1CCNC2` [Gaboxadol, 4,5,6,7-tetrahydroisoxazolo [5,4-c]pyridine-3-ol], the “effects in sleep onset and sleep maintenance” value [1] is listed as “failed to show significant effects”, the half-life [3] is listed as 1.5 to 2 h and the “time to reach peak concentration” value [3] is listed as at most 30 min. For the same molecule, the “half-life (t1/2)” value (plasma half-life post administration) was 1.5 to 2 h and the psychiatric adverse events [2] was “steep increase in psychiatric adverse events”.
